In US20210102200A1, “SMALL MOLECULE TARGETED RECRUITMENT OF A NUCLEASE TO RNA” (The Scripps Research Institute, priority 2018, published 2021):

Key:
[1] = test system: triple negative breast cancer; conditions: triple negative breast cancer mouse model; cited from earlier work
pre-miR-210 = pre-miR-210 levels / cleavage in hypoxic MDA-MB-231 cells by RT-qPCR; format: cell-based
Description: (§1) MDA-MB-231 (HTB-26; ATCC) cells were cultured in Roswell Park Memorial Institute (RPM I) 1640 media with L-glutamine & 25 mM HEPES (Corning) supplemented with 10% fetal bovine serum (FBS) (Sigma) and 1×Penicillin Streptomycin Solution (Corning). Cells cultured in normoxia were maintained at 37° C. in ambient atmosphere (˜21% O2) with 5% CO2. Cells cultured in hypoxia were maintained at 37° C., <1% O2 in a nitrogen filled hypoxic chamber (Billups-Rothenberg, Inc.), and 5% CO2. Cells were directly purchased from ATCC, but were not authenticated.
(§2) For compound treatment (TGP-210, TGP-210-RL, LNA-210, Scr-LNA), compound stocks in DMSO or water were diluted in growth medium and added to cells for 24-48 h. […]
(§3) MDA-MB-231 cells were treated in normoxic or hypoxic conditions for 24-48 h, as described above in the Experimental Model and Subject Details section. […] RNA expression levels were determined using the ΔΔCt method and normalized using 18S ribosomal RNA or U6 small nuclear RNA as housekeeping genes. […] Upon treatment with chimeric compound TGP-210-RL, relative cleavage levels were calculated according to equation 1A (Eq. 1A) in order to control for the effect of parent compound TGP-210, on pre-miR-210 expression: […]

mature miR-210 = experiment: Mature miR-210 levels in hypoxic MDA-MB-231 cells by RT-qPCR; format: cell-based
Description: as §1, §2, §3

In the case of Targapremir-210 [TGP-210], the Tumor growth [1] is given as “inhibited tumor growth”, the “Cleavage of pre-miR-210 by TGP-210-RL upon addition of TGP-210” value (pre-miR-210; constant TGP-210-RL, increasing amounts of TGP-210) is given as “caused a decrease in cleavage of pre-miR-210” and the pre-miR-210 levels (pre-miR-210; hypoxic MDA-MB-231 cells) is given as “increase”. The “Levels of mature miR-210” value (mature miR-210) was “decreased”.
